Values quoted from earlier work as cited in paper PMC8284440, “Toward New Transmission-Blocking Combination Therapies: Pharmacokinetics of 10-Amino-Artemisinins and 11-Aza-Artemisinin and Comparison with Dihydroartemisinin and Artemether” (Antimicrobial Agents and Chemotherapy, 2021).
In brackets after ≈: the same amount, converted by molar mass. Several values for one entry are separate records, joined by “and”; a condition that tells them apart may be missing. Equal values may be shown once. Read-outs that look alike come from different tables or passages of the source.

How the values were obtained:
[1] = system: late stage (IV-V) P. falciparum NF54 gametocytes; set-up: method as in ref 4 (supplement; main text 62); details: Table S4, n = 1; ref 4 (supplement; main text 62); read-out: Late stage IC50 (pLDH 72 + 72 h); cited from earlier work
P. falciparum W2 [2] = system: P. falciparum W2; set-up: method as in ref 4 (supplement; main text 62); details: Table S2, ± SEM; ref 4 (supplement; main text 62); read-out: Antimalarial activities IC50 W2; cited from earlier work
P. falciparum NF54 [3] = system: P. falciparum NF54; set-up: method as in ref 4 (supplement; main text 62); details: Table S2, ± SEM; ref 4 (supplement; main text 62); read-out: Antimalarial activities IC50 NF54; cited from earlier work
WI-38 HFLF = system: WI-38 HFLF; set-up: method as in ref 4 (supplement; main text 62); details: Table S2; ref 4 (supplement; main text 62); read-out: Cytotoxicities IC50 WI-38 HFLF; cited from earlier work
[4] = cited from earlier work
HepG2 = details: read-out: Cytotoxicity EC50 HepG2; ref 2 (supplement; main text 48); cited from earlier work
[5] = system: Chinese hamster ovary (CHO) cells; details: read-out: Cytotoxicity EC50 CHO; MTT, ±SD; ref 1 and 2 (supplement; main text 47, 48); cited from earlier work
P. falciparum NF54 [6] = system: P. falciparum NF54; set-up: method as in ref 1 and 2 (supplement; main text 47, 48); details: Table S1, ± SEM; ref 1 and 2 (supplement; main text 47, 48); cited from earlier work
P. falciparum K1 = system: P. falciparum K1; set-up: method as in ref 1 and 2 (supplement; main text 47, 48); details: Table S1, ± SEM; ref 1 and 2 (supplement; main text 47, 48); cited from earlier work
P. falciparum W2 [7] = system: P. falciparum W2; set-up: method as in ref 1 and 2 (supplement; main text 47, 48); details: Table S1, ± SEM; ref 1 and 2 (supplement; main text 47, 48); cited from earlier work
P. falciparum D6 = system: P. falciparum D6; set-up: method as in ref 5 (supplement; main text 63); details: CQ sensitive; ref 5 (supplement; main text 63); read-out: Antimalarial activities IC50 D6; cited from earlier work
P. falciparum TM-C2B = system: P. falciparum TM-C2B; set-up: method as in ref 5 (supplement; main text 63); details: atovaquone and CQ resistant; ref 5 (supplement; main text 63); read-out: Antimalarial activities IC50 TM-C2B; cited from earlier work
P. falciparum W2 [8] = system: P. falciparum W2; set-up: method as in ref 5 (supplement; main text 63); details: CQ resistant; ref 5 (supplement; main text 63); read-out: Antimalarial activities IC50 W2; cited from earlier work
[9] = set-up: method as in PMID 16444785, PMID 18559649; details: female rats, cited from earlier work
[10] = in vivo; cited from earlier work
W2 ring-stage parasites = system: W2 ring-stage parasites; set-up: method as in PMID 25288088; details: not in a concentration-dependent manner; cited from earlier work
[11] = system: CamWTC580Y, Cam3.IIC580Y and Cam3.IIRev strains; set-up: method as in PMID 25049252; details: read-out: mean IC50 across Cambodian strains; cited from earlier work
P. falciparum TM91-C235 = system: P. falciparum TM91-C235; set-up: method as in ref 5 (supplement; main text 63); details: CQ and mefloquine resistant; ref 5 (supplement; main text 63); read-out: Antimalarial activities IC50 TM91-C235; cited from earlier work
[12] = set-up: method as in PMID 16444785; details: cited from earlier work
murine cerebral malaria = system: murine cerebral malaria; set-up: method as in PMID 20691118; details: prescribed low dose levels; cited from earlier work
P. falciparum 7G8 = system: P. falciparum 7G8; set-up: method as in ref 5 (supplement; main text 63); details: CQ resistant; ref 5 (supplement; main text 63); read-out: Antimalarial activities IC50 7G8; cited from earlier work
nonsevere malaria = system: nonsevere malaria; set-up: method as in PMID 18559649, PMID 30902052, doi:10.4103/jpp.JPP_23_20; details: patients with nonsevere malaria; cited from earlier work
P. falciparum TM93-C1088 = system: P. falciparum TM93-C1088; set-up: method as in ref 5 (supplement; main text 63); details: atovaquone and CQ resistant; ref 5 (supplement; main text 63); read-out: Antimalarial activities IC50 TM93-C1088; cited from earlier work
P. falciparum W2 [13] = system: P. falciparum W2; set-up: method as in PMID 25049252; details: read-out: activity against W2; cited from earlier work

C[C@@H]1CC[C@H]2[C@@H](C)C(=O)N[C@@H]3O[C@@]4(C)CC[C@@H]1[C@]32OO4 [11-Aza-artemisinin 11, 11-aza-artemisinin]
IC50 [1]: 622 nM | IC50 (P. falciparum W2 [2]): 6.02 ± 1.81 nM | IC50 (P. falciparum NF54 [3]): 10.5 ± 1.36 nM | IC50 (WI-38 HFLF): > 100000 nM

CO[C@H]1O[C@@H]2O[C@@]3(C)CC[C@H]4[C@H](C)CC[C@@H]([C@H]1C)[C@@]24OO3 [Artemether 3, artemether]
IC50 (P. falciparum W2 [2]): 6.7 ± 0.6 nM | IC50 (P. falciparum NF54 [3]): 1.86 ± 0.17 nM | aqueous solubility ([4]; 25°C): 12.1 µg/mL (≈ 40.6 µM) | aqueous solubility [4]: 300 µg/mL (≈ 1010 µM) | aqueous solubility rating [4]: insoluble | aqueous solubility ([4]; variously recorded): < 1000 µg/mL

C[C@H]1[C@H](N2CCSCC2)O[C@@H]2O[C@@]3(C)CC[C@H]4[C@H](C)CC[C@@H]1[C@@]24OO3 [Artemiside 5, artemiside]
EC50 (HepG2): > 25000 nM | EC50 [5]: > 271000 nM | IC50 (P. falciparum NF54 [6]): 1.11 ± 0.17 nM | aqueous solubility at pH 7.2 [4]: < 2 mg/liter and < 5.4 μM | IC50 (P. falciparum K1): 1.6 ± 0.4 nM | IC50 (P. falciparum W2 [7]): 1.75 ± 0.27 nM

C[C@H]1[C@H](N2CCS(=O)(=O)CC2)O[C@@H]2O[C@@]3(C)CC[C@H]4[C@H](C)CC[C@@H]1[C@@]24OO3 [Artemisone 6, artemisone]
IC50 (P. falciparum D6): 1 ± 0.4 nM | IC50 (P. falciparum TM-C2B): 1.1 ± 0.4 nM | EC50 (HepG2): > 50000 nM | EC50 [5]: > 249000 nM | IC50 (P. falciparum W2 [8]): 1.3 ± 0.5 nM | Cmax ([9]; single oral dose 3 mg/kg): 35 ng/mL | elimination half-life ([9]; single oral dose 3 mg/kg): 10.8 min | Cmax ([9]; single oral dose 10 mg/kg): 230 ng/mL | elimination half-life ([9]; single oral dose 10 mg/kg): 22.2 min | Cmax ([9]; single oral dose 30 mg/kg): 850 ng/mL | elimination half-life ([9]; single oral dose 30 mg/kg): 32.4 min | artemisone equivalent concentrations at Tmax by bioassay versus LC/MS-MS, fold higher [10]: about 2.3 fold | Induction of quiescence in W2 ring-stage parasites (W2 ring-stage parasites): induce quiescence | IC50 [11]: 2.4 nM | IC50 (P. falciparum NF54 [6]): 1.2 ± 0.4 nM | IC50 (P. falciparum TM91-C235): 1.1 ± 0.5 nM | Neurotoxicity [12]: nonneurotoxic | Cure of murine cerebral malaria (murine cerebral malaria): completely curative | IC50 (P. falciparum 7G8): 0.8 ± 0.1 nM | Cure in phase IIa trial (nonsevere malaria): curative at one-third the dose level of artesunate | IC50 (P. falciparum TM93-C1088): 0.7 ± 0.2 nM | IC50 (P. falciparum W2 [13]): 1.9 nM | aqueous solubility at pH 7.2 [4]: 89 mg/liter and 221.6 μM | IC50 (P. falciparum K1): 1.01 ± 0.19 nM | IC50 (P. falciparum W2 [7]): 1.6 ± 0.4 nM

C[C@H]1[C@H](N2CCN(C(=O)Nc3ccc(F)cc3)CC2)O[C@@H]2O[C@@]3(C)CC[C@H]4[C@H](C)CC[C@@H]1[C@@]24OO3 [Arylurea 10]
EC50 (HepG2): 5160 nM | EC50 [5]: 204000 nM | IC50 (P. falciparum NF54 [6]): 1.3 ± 0.1 nM | IC50 (P. falciparum K1): 0.85 ± 0.1 nM | IC50 (P. falciparum W2 [7]): 1.16 ± 0.17 nM

C[C@H]1[C@@H](O)O[C@@H]2O[C@@]3(C)CC[C@H]4[C@H](C)CC[C@@H]1[C@@]24OO3 [DHA 2, dihydroartemisinin]
IC50 (P. falciparum D6): 1.7 ± 0.4 nM | IC50 (P. falciparum TM-C2B): 2 ± 0.7 nM | EC50 [5]: 25200 nM | IC50 (P. falciparum W2 [8]): 2.2 ± 0.8 nM | IC50 [11]: 11.2 nM | IC50 (P. falciparum NF54 [6]): 2.51 ± 0.19 nM | IC50 (P. falciparum TM91-C235): 2.3 ± 0.7 nM | IC50 (P. falciparum W2 [2]): 0.37 ± 0.11 nM | Cure of murine cerebral malaria (murine cerebral malaria): no cure | IC50 (P. falciparum 7G8): 1.3 ± 0.2 nM | IC50 (P. falciparum TM93-C1088): 1.4 ± 0.4 nM | IC50 (P. falciparum W2 [13]): 5.2 nM | IC50 (P. falciparum NF54 [3]): 0.57 ± 0.01 nM | IC50 (P. falciparum K1): 1.51 ± 0.33 nM | IC50 (P. falciparum W2 [7]): 1.74 ± 0.22 nM

C[C@H]1[C@H](N2C=CS(=O)(=O)CC2)O[C@@H]2O[C@@]3(C)CC[C@H]4[C@H](C)CC[C@@H]1[C@@]24OO3 [M1 12]
IC50 (P. falciparum D6): 4.7 ± 0.2 nM | IC50 (P. falciparum TM-C2B): 8.6 ± 8.2 nM | IC50 (P. falciparum W2 [8]): 6.6 ± 0.4 nM | Induction of quiescence in W2 ring-stage parasites (W2 ring-stage parasites): induce quiescence | IC50 (P. falciparum TM91-C235): 5 ± 0.6 nM | IC50 (P. falciparum 7G8): 2.6 ± 0.8 nM | IC50 (P. falciparum TM93-C1088): 2.5 ± 0.4 nM

C[C@H]1[C@H](NS(N)(=O)=O)O[C@@H]2O[C@@]3(C)CC[C@H]4[C@H](C)CC[C@@H]1[C@@]24OO3 [Sulfamide 7]
EC50 [5]: 56000 ± 4600 nM | IC50 (P. falciparum NF54 [6]): 3 ± 1 nM | aqueous solubility at pH 7.2 [4]: 294 mg/liter and 811 μM | IC50 (P. falciparum K1): 1.78 ± 0.26 nM | IC50 (P. falciparum W2 [7]): 2.04 ± 0.11 nM
